What was measured:
[1] = system: U-87; experiment: SRB cytotoxicity assay, U-87 (2nd panel); format: cell-based, human
Procedure: U-87MG cells (glioblastoma cell line) were cultured in Eagle’s Minimal Essential Medium. Human Dermal Fibroblasts cell line (HDF) was cultured in Fibroblast Basal Medium.
(§1) Each medium was supplemented with 10% fetal bovine serum, 1% L-glutamine, and 1% penicillin/streptomycin solution. The cell lines were kept in the incubator at 37◦C. The optimal plating density of cell lines was determined to be 5 × 104. All the cell lines and mediums were obtained from American Type Culture Collection (ATCC) supplied by LGC-Standards. The protein-staining SRB (Sigma-Aldrich) microculture colorimetric assay, developed by the National Cancer Institute (USA) for in vitro antitumor screening was used in this study, to estimate the cell number by providing a sensitive index of total cellular protein content, being linear to cell density. The monolayer cell culture was trypsinized and the cell count was adjusted to 5 × 10^4 cells. To each well of the 96 well microtiter plate, 0.1 mL of the diluted cell suspension (approximately […]) was added. After 24 hours, when a partial monolayer was formed, the supernatant was washed out and 100 μL of six different compound concentrations (0.1, 0.2, 1, 2, 10, and 20 μM) were added to the cells in microtitre plates. The tested compounds were dissolved in DMSO (containing 10 % of water) (100 μL) and the […]
(§2) lines. The cells were exposed to compounds for 72 hours at 37 °C in a humidified atmosphere (90% RH) containing 5% CO2. After that, 25 μL of 50 % trichloroacetic acid was added to the wells and the plates were incubated for 1 hour at 4◦C. The plates were then washed out with the distilled water to remove traces of medium and next dried by the air. The air-dried plates were stained with 100 μL of 0.4% sulforhodamine B (prepared in 1 % acetic acid) and kept for 30 minutes at room temperature. The unbound dye was removed by rapidly washing with 1% […]
(§3) acetic acid and then air dried overnight. The protein-bound dye was dissolved in 100 μL of 10 mM unbuffered Tris base (pH 10.5) for optical density determination at 490 nm. All cytotoxicity experiments were performed three times. Cell survival was measured as the percentage absorbance compared to the control (nontreated cells). Cytarabine (ara-C) and GDM were used as the internal standards. Additionally biological assays were performed in Human Dermal Fibroblasts cell line (HDF) in aim to evaluate cytotoxicity of GDM and its 1-13 analogs in healthy cells. SI indexes were calculated from equation SI = IC50 normal cell line HDF/IC50 respective cancerous cell line (Table 2). A beneficial SI > 1.0 indicates a compound with efficacy against tumor cell greater than the toxicity against normal cells. […]

[2] = system: SKOV-3; experiment: SRB cytotoxicity assay, SKOV-3 (2nd panel); format: cell-based, human
Procedure: (§4) Human cancer cells SKBR-3 (human breast cancer cell line) and SKOV-3 (ovarian cancer cell line) were cultured in McCoy’s Modified Medium. […]
(§5) Medium. Human Dermal Fibroblasts cell line (HDF) was cultured in Fibroblast Basal Medium.
as §1, §2, §3

[3] = system: PC-3; experiment: SRB cytotoxicity assay, PC-3 (2nd panel); format: cell-based, human
Procedure: as §5, §1, §2, §3

[4] = system: A-549; experiment: SRB cytotoxicity assay, A-549 (2nd panel); format: cell-based, human
Procedure: as §5, §1, §2, §3

[5] = system: HeLa; experiment: MTT cytotoxicity assay, HeLa (1st panel); format: cell-based, human
Procedure: (§6) Cell survival was measured as the percentage absorbance compared to the control (nontreated cells). […]
(§7) SI indexes were calculated from equation SI = IC50 normal cell line HDF/IC50 respective cancerous cell line (Table 2). A beneficial SI > 1.0 indicates a compound with efficacy against tumor cell greater than the toxicity against normal cells.
(§8) All experiments were carried out with human breast adenocarcinoma (MDA-MB-231 and MCF-7), hepatocellular carcinoma (HepG2), human cervical adenocarcinoma (HeLa) cancer cell lines, and human normal lung fibroblast (CCD39Lu) cell line. The cell line was purchased from the European Collection of Cells Cultures (ECACC, Salisbury, UK), and cultured in DMEM with phenol red supplemented with 10% (v/v) FBS, 1% (v/v) penicillin/streptomycin, and 1% (v/v) L-glutamine at 37 °C, in a humidified atmosphere containing 5% CO2.
(§9) The tested compounds were dissolved in DMSO to the final concentration 10 mM and stored […]
(§10) The cytotoxic effect of the tested compounds was determined by MTT assay. MDA-MB-231, MCF-7, HepG2, HeLa, and CCD39Lu cells were seeded in 96 wells plates at density 2x10^4 cells/well and incubated overnight under cell culture condition. Next, cells were treated with tested compounds at concentrations of 10 µM; 5 µM; 2.5 µM; 1.2 µM; 0.6 µM; 0.3 µM; 0.15 […]
(§11) µM. Moreover, GDM (for MCF-7) and 8 (for MCF-7 and MDA-MB-231) due to high cytotoxicity, were additionally tested at a lower concentration range of 2.5 µM; 1.2 µM; 0.6 µM; 0.3 µM; 0.15µM; 0.07 µM; 0.03 µM. DMSO was used as a control, and the concentration […]
(§12) Tested compounds were added to cells in the medium without phenol red. Cells were incubated 72 h at 37 °C in a humidified atmosphere containing 5% CO2.
(§13) Then, the medium was aspirated and MTT solution at a concentration of 0.59 mg/mL in cell culture medium was added to each well. Plates were incubated for 1.5 hours at 37 °C, and then plates were centrifuged for 3 minutes. The formazan crystals were dissolved in 200 µl DMSO and plates were agitated on a plate shaker at 300 –500 rpm for 10 minutes. Absorbance at 570 nm was measured using a plate reader (Biotek Instruments, Elx -800). Data were normalized to the mean absorption of control cells. All experiments were performed at least three times. […]

[6] = system: MCF-7; experiment: MTT cytotoxicity assay, MCF-7 (1st panel); format: cell-based, human
Procedure: as §6, §7, §8, §9, §10, §11, §12, §13

[7] = system: SKBR-3; experiment: SRB cytotoxicity assay, SKBR-3 (2nd panel); format: cell-based, human
Procedure: as §4, §5, §1, §2, §3

[8] = system: MDA-MB-231; experiment: MTT cytotoxicity assay, MDA-MB-231 (1st panel); format: cell-based, human
Procedure: as §6, §7, §8, §9, §10, §11, §12, §13

[9] = Water solubility SH2O
[10] = system: CCD39Lu; experiment: MTT cytotoxicity assay, normal lung fibroblasts CCD39Lu; format: cell-based; conditions: Fibroblast, ± SD, healthy human lung fibroblasts, 72 h, read-out: IC50 CCD39Lu (toxicity in normal cells)
Procedure: as §6, §7, §8, §9, §10, §11, §12, §13

[11] = system: HDF; experiment: SRB cytotoxicity assay, human dermal fibroblasts HDF; format: cell-based; conditions: 72 h, ± SD, mixtures equimolar 1:1, read-out: IC50 HDF (toxicity in normal cells)
Procedure: as §5, §1, §2, §3

[12] = system: HepG2; experiment: MTT cytotoxicity assay, HepG2 (1st panel); format: cell-based, human
Procedure: as §6, §7, §8, §9, §10, §11, §12, §13

Solubility SH2O [9]: almost water-insoluble
SMILES: COC1=C2C[C@@H](C)C[C@H](OC)[C@H](O)[C@@H](C)/C=C(\C)[C@H](OC(N)=O)[C@@H](OC)/C=C\C=C(/C)C(=O)NC(=CC1=O)C2=O [GDM, Geldanamycin]
IC50 ([1]; Homo sapiens, U-87 MG, ± SD, SRB, 72 h): 810 ± 120 nM
selectivity index SIHDF (U-87) ([1]; IC50 normal cell line HDF/IC50 U-87): 2.62
IC50 ([2]; Homo sapiens, SK-OV-3, ± SD, SRB, 72 h, mixtures equimolar 1:1): 940 ± 90 nM
selectivity index SIHDF (SKOV-3) ([2]; IC50 normal cell line HDF/IC50 SKOV-3): 2.27
IC50 ([3]; Homo sapiens, PC-3, ± SD, SRB, 72 h, mixtures equimolar 1:1): 730 ± 10 nM
selectivity index SIHDF (PC-3) ([3]; IC50 normal cell line HDF/IC50 PC-3): 2.92
IC50 ([4]; Homo sapiens, A549, ± SD, SRB, 72 h): 990 ± 10 nM
selectivity index SIHDF (A-549) ([4]; IC50 normal cell line HDF/IC50 A-549): 2.15
IC50 ([5]; Homo sapiens, HeLa, ± SD, MTT, 72 h): 1420 ± 100 nM
selectivity index SI (HeLa) ([5]; IC50 normal cell line CCD39Lu/IC50 HeLa): 5.99
IC50 ([6]; Homo sapiens, MCF7, 72 h, ± SD, MTT, 72 h): 3.51 ± 0.21 µM
selectivity index SI (MCF-7) ([6]; IC50 normal cell line CCD39Lu/IC50 MCF-7): 2.42
IC50 ([7]; Homo sapiens, SK-BR-3, ± SD, SRB, 72 h, mixtures equimolar 1:1): 870 ± 170 nM
selectivity index SIHDF (SKBR-3) ([7]; IC50 normal cell line HDF/IC50 SKBR-3): 2.45
IC50 ([8]; Homo sapiens, MDA-MB-231, ± SD, MTT, 72 h): 1040 ± 630 nM
selectivity index SI (MDA-MB-231) ([8]; IC50 normal cell line CCD39Lu/IC50 MDA-MB-231): 8.17
IC50 [10]: 8.5 ± 0.25 µM
CC50 [11]: 2130 ± 110 nM
IC50 ([12]; Homo sapiens, HepG2, ± SD, MTT, 72 h): 740 ± 320 nM
selectivity index SI (HepG2) ([12]; IC50 normal cell line CCD39Lu/IC50 HepG2): 11.48
